According to paper PMC7067379, “Mapping the S1 and S1’ subsites of cysteine proteases with new dipeptidyl nitrile inhibitors as trypanocidal agents” (PLoS Neglected Tropical Diseases, 2020):
Where two headings read alike, the source gives them in different places.

Columns and labels:
[1] = tested on: T. cruzi Tulahuen LacZ strain, intracellular amastigote forms; test: In vitro trypanocidal activity on intracellular amastigote forms (Tulahuen strain); format: cell-based, Trypanosoma cruzi; settings: for EC50: Trypanosoma cruzi, TULAHUEN; for SI (selective index): from EC50 (T. cruzi) and CC50 (LLCMK2)
Method: Cells were evaluated in 96-well plates. Cells from the LLCMK2 lineage were plated at a concentration of 5x10^4 cells mL^-1. Trypomastigote forms of the Tulahuen LacZ strain were added at a concentration of 5×10^5 parasites mL^-1 and placed in the incubator at 37°C with 5% CO2 for 24 h. After the incubation period, the trypomastigote forms present were removed by successive washes with PBS, remaining only as intracellular amastigote forms. Compounds were added at different concentrations (1.95 μM to 250 μM serial dilutions) and incubated for 72 h. At the end of this period, the substrate CPRG (chlorophenol red β-D-galactopyranoside, 400 μM in 0.3% Triton X-100, pH 7.4) was added. […] Benznidazole was used as a positive control in the same concentrations as the substances, and DMSO as a negative control. Compounds were solubilized in DMSO. The selectivity index (SI) was calculated using the formula: […]. All statistical analyses were done with the program GraphPad Prism v.5.

[2] = Mammalian cytotoxicity assay (MTT); format: cell-based; settings: rhesus monkey, LLCMK2 cells;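 also: Read-out is absorbance at 570 nm of formazan taken up in DMSO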
Method: LLCMK2 cells were cultured in 96-well plates at a concentration of 5 x 10^4 cells/ml. After 48 h, the plates were washed twice with PBS and 200 μL RPMI medium was added with serial dilutions of the compounds and benznidazole (1.95 μM to 250 μM) in triplicate. After 72 h at 37 °C, the cytotoxic activity of the compounds was determined by the classical MTT [3- (4,5-dimethylthiazol-2-yl) -2,5-diphenyltetrazolium bromide] method. Briefly, 50 μL MTT dissolved in PBS (2.0 mg mL^-1) was added to each well and the plates were incubated for 4 h at 37 °C. The formed formazan crystals were dissolved with DMSO (50 μL/well) and the absorbance of the samples was measured by spectrophotometer at 570 nm after 30 min.

cathepsin S (CatS) = cathepsin S (CatS) (Homo sapiens, UniProt P25774); test: Cathepsin S enzyme inhibition; format: biochemical; settings: SD lower than 15%; read-out: pKi CatS (converted)
Sequence of cathepsin S (CatS) (P25774 115-331): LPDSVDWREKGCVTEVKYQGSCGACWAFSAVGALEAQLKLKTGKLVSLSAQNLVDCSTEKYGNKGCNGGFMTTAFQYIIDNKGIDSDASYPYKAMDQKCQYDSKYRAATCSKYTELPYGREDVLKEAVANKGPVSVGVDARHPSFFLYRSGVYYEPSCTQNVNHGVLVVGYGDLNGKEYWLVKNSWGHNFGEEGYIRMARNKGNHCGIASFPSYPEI
Method: (§1) Enzyme inhibition studies for Cz and LmCPB were performed as previously described for Cz. The experimental procedures are described in the Supporting Information (see chapter S3). Cathepsins B, L, S were assayed as reported.

[3] = target: Leishmania mexicana CPB (LmCPB) (Leishmania mexicana, UniProt P36400); test: LmCPB enzyme inhibition; format: biochemical; settings: for difference in pKi, LmCPB: sign not given, direction by cell colour or wording
Sequence of Leishmania mexicana CPB (LmCPB) (P36400 126-443): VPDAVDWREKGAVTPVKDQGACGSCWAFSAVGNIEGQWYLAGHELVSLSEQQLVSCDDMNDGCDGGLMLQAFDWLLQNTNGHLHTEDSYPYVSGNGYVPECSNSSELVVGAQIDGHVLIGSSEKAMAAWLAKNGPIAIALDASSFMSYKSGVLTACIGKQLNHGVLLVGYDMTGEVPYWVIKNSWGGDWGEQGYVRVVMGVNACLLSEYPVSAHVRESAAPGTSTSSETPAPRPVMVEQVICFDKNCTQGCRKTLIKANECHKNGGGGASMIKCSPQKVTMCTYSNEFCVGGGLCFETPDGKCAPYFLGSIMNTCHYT
Method: as §1

[4] = target: T1, Human recombinant cathepsin K (Homo sapiens, UniProt P43235); test: Cathepsin K assay; format: biochemical; settings: for Ki: SD lower than 15%, read-out: pKi CatK (converted)
T1 sequence (P43235 115-329): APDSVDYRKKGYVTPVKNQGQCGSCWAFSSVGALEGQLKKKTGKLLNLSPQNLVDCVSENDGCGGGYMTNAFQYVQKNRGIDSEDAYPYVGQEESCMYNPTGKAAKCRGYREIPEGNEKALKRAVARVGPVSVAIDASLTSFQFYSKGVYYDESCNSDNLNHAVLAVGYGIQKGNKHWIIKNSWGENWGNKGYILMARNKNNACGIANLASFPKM
Method: Human recombinant cathepsin K was assayed on a FLUOSTAR Optima plate reader at 25 °C with an excitation wavelength of 360 nm and an emission wavelength of 440 nm on a 96 well plate. The enzyme solution (23 μg/mL in 50 mM sodium acetate pH 5.5, 50 mM NaCl, 0.5 mM EDTA, 5 mM DTT) was diluted 1:100 with assay buffer (100 mM sodium citrate buffer pH 5.0, 100 mM NaCl, 1 mM EDTA, 0.01% CHAPS) containing 5 mM DTT and was then incubated at 37 °C for 30 min for activation. A 1.5 mM stock solution of the substrate Z-Leu-Arg-AMC was prepared in DMSO. […] The assay was performed with a final concentration of cathepsin K of 1.73 ng/mL. Stock solutions of inhibitors were prepared in DMSO. The final DMSO concentration was 2% (4 μL). Into a well containing 194.5 μL assay buffer, 0.8 μL of the fluorogenic substrate, DMSO and inhibitor solution (3.2 μL) were added. Upon addition of cathepsin K (1.5 μL), the measurement was started and followed for 20 min.

cathepsin B (CatB) = cathepsin B (CatB) (Homo sapiens, UniProt P07858); test: Cathepsin B enzyme inhibition; format: biochemical; settings: for Ki: SD lower than 15%, read-out: pKi CatB (converted)
cathepsin L (CatL) = cathepsin L (CatL) (Homo sapiens, UniProt P07711); test: Cathepsin L enzyme inhibition; format: biochemical; settings: for Ki: SD lower than 15%, read-out: pKi CatL (converted); for difference in pKi, CatL: relative to compound 11, sign not given, direction by cell colour or wording
Sequence of cathepsin L (CatL) (P07711 114-333): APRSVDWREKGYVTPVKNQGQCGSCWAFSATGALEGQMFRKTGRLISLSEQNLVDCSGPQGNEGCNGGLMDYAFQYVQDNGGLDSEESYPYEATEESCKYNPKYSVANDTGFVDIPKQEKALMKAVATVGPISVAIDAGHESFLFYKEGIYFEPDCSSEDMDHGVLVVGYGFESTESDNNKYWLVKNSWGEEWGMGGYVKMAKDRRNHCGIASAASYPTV

recombinant cruzain (Cz) = recombinant cruzain (Cz) (Trypanosoma cruzi, UniProt P25779); test: Cruzain enzyme inhibition; format: biochemical; settings: for difference in pKi, Cz: sign not given, direction by cell colour or wording
Sequence of recombinant cruzain (Cz) (P25779 123-337): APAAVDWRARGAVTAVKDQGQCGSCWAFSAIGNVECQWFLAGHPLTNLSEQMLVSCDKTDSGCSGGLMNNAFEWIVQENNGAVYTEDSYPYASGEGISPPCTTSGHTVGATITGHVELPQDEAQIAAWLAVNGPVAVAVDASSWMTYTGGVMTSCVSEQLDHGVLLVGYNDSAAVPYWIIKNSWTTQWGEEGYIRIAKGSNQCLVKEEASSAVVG
Method: as §1

[5] = S1 Table, maximum concentration used 250 µM, read-out: CC50
[6] = SD lower than 15%, read-out: pKi LmCPB (converted)
[7] = 10 μM, replicates = 2, n.i. = no inhibition observed at 10 μM
[8] = SD lower than 15%, read-out: pKi Cz (converted)
[9] = S1 Table, maximum concentration used 250 µM, read-out: EC50 T. cruzi
[10] = T. cruzi amastigote form, S1 Table, read-out: pEC50 (converted)
[11] = LLCMK2, 72 h, MTT, Table 2, read-out: CC50 cytotoxicity
[12] = 72 h, amastigote, Tulahuen strain, 72 h, Table 2, read-out: EC50 trypanocidal activity

Structure (SMILES)	melting point	CC50 at 72 h [2, 5]	Ki (cathepsin S (CatS))	Ki [3, 6]	Ki (cathepsin B (CatB))	Ki (cathepsin L (CatL))	Ki (recombinant cruzain (Cz); [8])	EC50 [1, 9]	EC50 [1, 10]	SI (selective index) ([1]; Table 2)	CC50 at 72 h [2, 11]	Ki [4]	EC50 [1, 12]	further results
N#CC1(NC(=O)[C@H](Cc2c[nH]c3ccccc23)NC(=O)c2ccnc3cc(Cl)ccc23)CC1 [Compound 14, (S)-7-Chloro-N-(1-((1-cyanocyclopropyl)amino)-3-(1H-indol-3-yl)-1-oxopropan-2-yl)quinoline-4-carboxamide]	196 to 197 °C	> 100000 nM	1000 nM	2000 nM	20000 nM	2000 nM	631 nM							EC50 ([1]; read-out: EC50 T. cruzi, S1 Table, maximum concentration used 250 µM): > 100000 nM; remaining activity (%) at 10 μM, CatK [4, 7]: n.i.^c
CC(C)C[C@H](NC(=O)c1ccnc2cc(Cl)ccc12)C(=O)NC1(C#N)CC1 [Compound 15, (S)-7-Chloro-N-(1-((1-cyanocyclopropyl)amino)-4-methyl-1-oxopentan-2-yl)quinoline-4-carboxamide]	169 to 170 °C	> 100000 nM	126 nM	50.1 nM		251 nM	15.8 nM	77300 nM	79400 nM	1.14	73600 ± 8740 nM	126 nM		EC50 ([1]; 72 h, read-out: EC50 trypanocidal activity, amastigote, Tulahuen strain, 72 h, Table 2): 64700 ± 4320 nM; remaining activity at 10 µM (cathepsin B (CatB); [7]): 89%; difference in pKi, CatL (cathepsin L (CatL)): 1.0
N#CC1(NC(=O)[C@H](Cc2ccccc2)NC(=O)c2cccc(OC(=O)c3ccccc3)c2)CC1 [Compound 16, (S)-3-((1-((1-Cyanocyclopropyl)amino)-1-oxo-3-phenylpropan-2-yl)carbamoyl)phenyl benzoate]	185 to 187 °C		50.1 nM	100 nM	6310 nM	501 nM	126 nM		50100 nM	> 2.1	> 100000 nM	631 nM	47300 ± 3260 nM	
CC(C)C[C@H](NC(=O)c1ccc(N)nc1)C(=O)NC1(C#N)CC1 [Compound 17, (S)-6-Amino-N-(1-((1-cyanocyclopropyl)amino)-4-methyl-1-oxopentan-2-yl)nicotinamide]	100 to 101 °C	> 100000 nM	25.1 nM	158 nM		316 nM	79.4 nM	> 100000 nM	> 100000 nM			10 nM		remaining activity (%) at 10 μM, CatB (cathepsin B (CatB); [7]): n.i.^c
CC(C)C[C@H](NC(=O)c1cnc2[nH]ccc2c1)C(=O)NC1(C#N)CC1 [Compound 18, (S)-N-(1-((1-Cyanocyclopropyl)amino)-4-methyl-1-oxopentan-2-yl)-1H-pyrrolo[2,3-b]pyridine-5-carboxamide]	79 to 80 °C	> 100000 nM	50.1 nM		31600 nM	79.4 nM		> 100000 nM	> 100000 nM			2 nM		Ki [3]: 63.1 nM; difference in pKi, LmCPB ([3]; relative to compound 11): -0.5; Ki (recombinant cruzain (Cz)): 20 nM; difference in pKi, Cz (recombinant cruzain (Cz); relative to compound 11): -0.7
C[C@@H](O)[C@H](NC(=O)c1cc(C(C)(C)C)nn1C)C(=O)NC1(C#N)CC1 [Compound 19, 3-(tert-Butyl)-N-((2S,3R)-1-((1-cyanocyclopropyl)amino)-3-hydroxy-1-oxobutan-2-yl)-1-methyl-1H-pyrazole-5-carboxamide]	201 to 202 °C	> 100000 nM	10000 nM		25100 nM	6310 nM		> 100000 nM	> 100000 nM			3160 nM		remaining activity at 10 µM ([3]; 10 μM, replicates = 2): 67%; difference in pKi, CatL (cathepsin L (CatL)): 0.5; remaining activity at 10 µM (recombinant cruzain (Cz); 10 μM, replicates = 2): 51%
Cn1nc(C(C)(C)C)cc1C(=O)N[C@@H](Cc1ccccc1)C(=O)N[C@H](C#N)Cc1ccccc1 [Compound 50, 3-(tert-Butyl)-N-((S)-1-(((S)-1-cyano-2-phenylethyl)amino)-1-oxo-3-phenylpropan-2-yl)-1-methyl-1H-pyrazole-5-carboxamide]	89 to 90 °C		50.1 nM	15.8 nM	31600 nM	3.16 nM	20 nM	63500 nM	63100 nM	1.31	83100 ± 6850 nM	501 nM	63300 ± 5740 nM	difference in pKi, LmCPB ([3]; relative to compound 9): 0.7; difference in pKi, CatB (cathepsin B (CatB); relative to compound 9, sign not given, direction by cell colour or wording): 0.3; difference in pKi, Cz (recombinant cruzain (Cz); relative to compound 9): 0.4
Cn1nc(C(C)(C)C)cc1C(=O)N[C@@H](Cc1ccccc1)C(=O)N[C@@H](C#N)Cc1ccccc1 [Compound 51, 3-(tert-Butyl)-N-((S)-1-(((R)-1-cyano-2-phenylethyl)amino)-1-oxo-3-phenylpropan-2-yl)-1-methyl-1H-pyrazole-5-carboxamide]	98 to 99 °C	42300 nM	1260 nM	794 nM		126 nM	501 nM		7940 nM	4.9	42300 ± 3940 nM	2510 nM	8600 ± 530 nM	remaining activity at 10 µM (cathepsin B (CatB); [7]): 94%
CC(C)C[C@@H](C#N)NC(=O)[C@H](Cc1ccccc1)NC(=O)c1cc(C(C)(C)C)nn1C [Compound 52, 3-(tert-Butyl)-N-((S)-1-(((S)-1-cyano-3-methylbutyl)amino)-1-oxo-3-phenylpropan-2-yl)-1-methyl-1H-pyrazole-5-carboxamide]	81 to 82 °C		126 nM	39.8 nM	7940 nM	5.01 nM	31.6 nM		3980 nM		97900 ± 6520 nM	200 nM	4100 ± 470 nM	fold increase in trypanocidal potency ([1]; compared with compound 9): 17.5 fold
Cn1nc(C(C)(C)C)cc1C(=O)N[C@@H](Cc1ccccc1)C(=O)N[C@H](C#N)Cc1cccc(Cl)c1 [Compound 54, 3-(tert-Butyl)-N-((S)-1-(((S)-2-(3-chlorophenyl)-1-cyanoethyl)amino)-1-oxo-3-phenylpropan-2-yl)-1-methyl-1H-pyrazole-5-carboxamide]	132 to 133 °C		79.4 nM		12600 nM	5.01 nM			15800 nM	2.83	44700 ± 5240 nM	501 nM	15800 ± 1430 nM	Ki [3]: 31.6 nM; Ki (recombinant cruzain (Cz)): 31.6 nM
C[C@@H](OCc1ccccc1)[C@@H](C#N)NC(=O)[C@H](Cc1ccccc1)NC(=O)c1cc(C(C)(C)C)nn1C [Compound 56, N-((S)-1-(((1R,2R)-2-(Benzyloxy)-1-cyanopropyl)amino)-1-oxo-3-phenylpropan-2-yl)-3-(tert-butyl)-1-methyl-1H-pyrazole-5-carboxamide]	115 to 116 °C	> 100000 nM	1000 nM	316 nM	6310 nM	100 nM	501 nM	> 100000 nM	> 100000 nM			2000 nM		EC50 ([1]; amastigote forms of T. cruzi (Tuhaluen strain), Figs 12-14, unit inferred): > 100000 nM; difference in pKi, Cz (recombinant cruzain (Cz); relative to compound 9): -1.0
